Reference: patent publication US7319090B2, “Methods of treating cerebral ischemia” (University of North Carolina at Chapel Hill, priority 2002, dated 2008)
Where a SMILES comes first, the peptide text is derived from it. Where no end group is shown, it is not given here. [ ]: non-standard residue; d: D form. Ala(indol-4-yl) = N[C@@H](Cc1cccc2[nH]ccc12)C(=O)O; NMeR = CN[C@@H](CCCNC(=N)N)C(=O)O; Tle = CC(C)(C)[C@H](N)C(=O)O; dOrn = NCCC[C@@H](N)C(=O)O; neo‑Trp = not defined here

How the values were obtained:
Type in all cases: in vivo, rat
[1] = test system: Sprague-Dawley rats; assay: Metabolism and heat loss in a direct calorimeter after NT77; settings: 5.0 mg/kg i.p.; data not shown
Experimental: Oxygen consumption and dry heat loss were measured in naive rats implanted with radiotransmitters and housed in a direct calorimeter. The internal dimensions of the calorimeter were 30.5 cm×30.5 cm×30.5 cm. The calorimeter was used to measure the rate of dry heat loss (i.e., thermal conductance) from the rats using thermoelectric sensors in the calorimeter walls. The calorimeter was housed inside a temperature-controlled chamber maintained at 23.5° C. The inside of the calorimeter was dimly illuminated with LED lights (total power=0.2 Watts). […]
A mass flow controller was used to meter dry air at a constant flow rate (2.7 liters/minute; STP) into the calorimeter. […] Percent oxygen, dry heat loss, air flow rate, and calorimeter temperature were monitored at 1 minute intervals by a data acquisition system (Dianachart PC acquisitor). […] (W/C) was calculated by dividing the value of dry heat loss at 1 minute intervals by the difference between core and ambient temperature. […]
A naive rat was placed in the wire-mesh cage which was then placed inside the calorimeter at approximately 9 a.m. […] After 115 minutes, the percent oxygen of the inflowing air was measured for another 5 minutes for calibration purposes but the rat was not disturbed. […]

[2] = test system: Sprague-Dawley rats; assay: Behavioral thermoregulation in a temperature gradient (selected Ta, core temperature, motor activity) after NT77
Experimental: Male rats of the Sprague-Dawley strain at 60 days of age were obtained from Charles River Laboratories (Raleigh, N.C.). The animals were housed individually in acrylic cages lined with wood shavings at an ambient temperature (Ta) of 22° C., relative humidity of 50%, and a 12 hour light:12 hour dark photoperiod (lights were turned on at 6 a.m. and turned off at 6 p.m.). Core temperature and motor activity were monitored in undisturbed rats using radio telemetry (Data Sciences International, St. Paul, Minn.). Details of the telemetry system are described in Gordon, C. J., 24-hour control of body temperature in the rat: I. Integration of behavioral and autonomic effectors, Am. J. Physiol. 267, […]-[…], 1994. Briefly, rats were anesthetized with sodium pentobarbital (50 mg/kg; intraperitoneally) and an incision was made for the implantation of the transmitter (TAIOTA-F40) into the abdominal cavity. The abdominal muscle was sutured and the skin was closed with wound clips. […] The behavioral thermoregulatory response to NT77 was assessed by measuring selected ambient temperature (Selected Ta) of the unrestrained rats when housed in a temperature gradient (Gordon, C. J., 24-hour control of body temperature in the rat: I. Integration of behavioral and autonomic effectors, Am. J. Physiol. 267, […]-[…], 1994). Rats were placed in a temperature gradient and allowed to behaviorally select from a range of ambient temperatures (Ta) while core temperature (Tc) was monitored by radiotelemetry. Selected Ta, core temperature (Tc), and motor activity were monitored at 1 minute intervals. […] Selected Ta was measured by photocells positioned at 10 cm intervals that detected the position of the rat in the gradient and automatically compared the position to the air temperature measured by thermocouples placed immediately outside the wire-mesh cage. Motor activity was calculated by measuring the change in position of the rat in the gradient at 1 minute intervals. […] The behavioral and core temperature data were recorded at 1 minute intervals throughout the experiment. […]

[3] = test system: Sprague-Dawley rats resuscitated from asphyxial cardiac arrest; assay: Neurological deficit score 14 days after ROSC (NT69L)
Experimental: A final neurological deficit score (NDS) was performed 14 days after ROSC by an evaluator blinded to the insult and therapeutic intervention. Rats were tested for coordination (balance beam walk placing test, depth perception, righting reflex) and for motor and sensory function as described in Katz et al., Outcome model of asphyxial cardiac arrest in rats, J. Cereb. Blood Flow Metab., 1995, 15:1032-1039. The NDS includes a range from 0 (indicating normal) to 100 (indicating brain dead).
(§1) Physiological variables (arterial blood gas, glucose, and MAP) between groups were compared by a one-way analysis of variance (ANOVA). All values were reported as means±standard deviation unless otherwise stated. A one-way analysis of variance (ANOVA) was used to determine the between-group differences in latency time for finding the platform during the MWM on day 14. When an overall significant difference was found, a Tukey post-hoc analysis was used to determine specific between-group differences. Performances on the MWM (learning curve) between days 10 and 14 were compared between groups by a repeated measure ANOVA. Neurological deficit scores between groups were assessed by Kruskal-Wallis analysis. For all analyses, alpha was set at a p<0.05 level of significance.

[4] = test system: Sprague-Dawley rats resuscitated from asphyxial cardiac arrest; assay: Morris Water Maze on days 10-14 after ROSC (NT69L)
Experimental: On days 10-14 after ROSC, the rats were accessed for performance in a Morris Water Maze (MWM). Evaluation was begun on day 10 to ensure that there was complete recovery from anesthesia and the surgical procedures based on prior pilot studies (data not shown). A six foot diameter round pool was filled with water (26° C.) to a depth of 20 cm, 1 cm above an 11-cm diameter clear glass escape platform. The escape platform was invisible to a swimming rat and was placed in the northeast quadrant of the pool. The pool had large visible and distinct geometric shapes placed in a north, south, east, and west distribution on the side of the pool wall so that a swimming rat could easily visualize the orientation markers. The pool was situated in a room with black walls and ceiling to minimize external distractions for the rats. Rats were initially placed in the pool (without the escape platform) for 2 minutes to become acclimatized to the new swimming environment. The rats were then placed on the escape platform for 30 seconds to allow for self orientation in the pool. Next, the rats were randomly placed in each of the four geographic outer regions of the pool and their travel path, swim speed, and time required to locate the hidden platform (latency time) were recorded. Rats performed four swim trials on each day with a maximum swim time of 2 minutes, at which time the trial was terminated if a rat was unable to locate the platform. A 3-minute rest period was provided between trials. In addition to the rats that sustained cardiac arrest (n=16), nine sham rats were surgically instrumented and allowed to recover for ten days before being assessed for performance in the MWM.
as §1

[5] = test system: free-roaming, unanesthetized rats; assay: Pilot: brain temperature of free-roaming unanesthetized rats without cardiac arrest given NT69L; settings: no cardiac arrest, room temperature 23° C., i.v.
Experimental: In separate pilot experiments, four rats were instrumented for placement of temperature probes and intravenous catheters as described above. Three days after recovery from anesthesia, NT69L was administered intravenously to two free-roaming, unanesthetized rats at room temperature (23° C.). In the same environment and at the same time, two rats were given a similar volume of saline for comparison.

[6] = test system: Sprague-Dawley rats resuscitated from asphyxial cardiac arrest
Description: Sixteen male Sprague-Dawley rats (Harlan; Madison, Wis.) weighing 300±50 grams were randomized to a control group (saline) or treatment group (NT69L) after resuscitation from asphyxial cardiac arrest. The outcome model of asphyxial cardiac arrest in rats was used to induce the cerebral insult in all rats (Katz et al., Outcome model of asphyxial cardiac arrest in rats, J. Cereb. Blood Flow Metab., 1995, 15:1032-1039). Under titrated inhaled isoflurane anesthesia, brain telemetric probes (Mini-Mitter; Sunriver, Oreg.) were implanted three days before the cerebral insult. […] On the day of the cerebral insult, rats were again anesthetized with inhaled isoflurane anesthesia, intubated, and mechanically ventilated. A tail artery was cannulated for continuous blood pressure monitoring and blood gas analysis, while the jugular vein was cannulated for intravenous drug administration. Intravenous vecuronium (2 mg/kg intravenous) and cessation of mechanical ventilation were used to induce apneic asphyxia. Asphyxia led to cardiac arrest (i.e., mean arterial pressure (MAP)<10 mm Hg and a pulse pressure of 0 mm Hg) within approximately 3 minutes; the cardiac arrest was maintained until resuscitation. Eight minutes after asphyxia, the rats were resuscitated with mechanical ventilation (100% oxygen), 0.005 mg/kg intravenous epinephrine, and chest compressions until a mean arterial pressure of 60 mm Hg was produced and maintained by a spontaneously beating heart for more than 10 seconds. Immediately after restoration of spontaneous circulation (ROSC), the rats were placed in an incubator that maintained an ambient temperature of 31.6° C. […] Ten minutes after ROSC, NT69L (0.5 mg/kg) […] or saline 3 mL/kg was administered intravenously. The ventilator was adjusted to normalize temperature-corrected arterial carbon dioxide before the insult and for two hours after ROSC. Two hours after ROSC, spontaneously breathing rats were extubated and maintained in the incubator for 24 hours. Rats were handled daily after the experiment and had free access to food and water.
as §1

[7] = intravenously after resuscitation from cardiac arrest
[8] = one NT69L group rat, day 14 after resuscitation
[9] = NT69L 0.5 mg/kg i.v., ambient 31.6° C.

Compound	effect on motor activity in the calorimeter [1]	effect on motor activity ([2]; 5.0 mg/kg i.p., temperature gradient)	core temperatures and selected Ta's during the night after treatment ([2]; 5.0 mg/kg i.p., data not shown)	loss of initial body weight ([2]; day after treatment, saline 1.6%)	neurological deficit score (NDS) ([3]; 14 days after ROSC, 0 normal to 100 brain dead, control 30±10)	neurological outcome (conclusion) [3, 7]	latency time in Morris Water Maze ([4]; fourteen days after ROSC, control 45±26, sham 10±3)	distance traveled, sample path of one rat (FIG. 1) [4, 8]	latency time, sample path of one rat (FIG. 1) [4, 8]	rates of change of latency time over days 10-14 versus control ([4]; p=0.15 repeated-measures ANOVA)	swimming speed during MWM testing ([4]; sham 27±2, control 25±1)	brain temperature versus saline rats [5]	duration of mild hypothermia (mean) ([6]; NT69L 0.5 mg/kg i.v.)	duration of mild hypothermia (median) ([6]; NT69L 0.5 mg/kg i.v.)	duration of mild hypothermia (range) ([6]; NT69L 0.5 mg/kg i.v.)	time until brain temperature dropped below 35° C. after administration (mean) [6, 9]	time until brain temperature dropped below 35° C. after administration (range) [6, 9]	rats with ROSC that survived 14 days ([6]; each group, same as control)	hypothermia produced (conclusion) [6, 7]	hypotension produced ([6]; rat, in vivo)
CC(C)C[C@H](NC(=O)[C@@H](NC(=O)[C@H](Cc1cccc2[nH]ccc12)NC(=O)[C@@H]1CCCN1C(=O)[C@@H](CCCN)NC(=O)[C@@H](N)CCCNC(=N)N)C(C)(C)C)C(=O)O [NT77] (H-R[dOrn]P[Ala(indol-4-yl)][Tle]L-OH)	no discernable effect	no effect	normal	2.4%																
NT69L: neurotensin analog, SEQ ID NO: 16, positions 8-13: N-methyl-Arg, L-Lys, L-Pro, L-neo-Trp, tert-Leu, L-Leu ([NMeR]KP[neo‑Trp][Tle]L; reading uncertain)					3±3	improved neurological outcome	22 ± 8 s	225 cm	9 s	no difference	26 ± 1 cm/s	drop in brain temperature	300 ± 100 min	367 min	20 to 400 min	13+3 minutes	8 to 15 min	Seven out of eight	rapid and prolonged mild hypothermia	mild and transient
